Legend:
erectile dysfunction = conditions: injection 10 mcg or 20 mcg applied directly to the penis, cited from earlier work
[1] = half-life of the oral drug; type: in vivo; conditions: tadalafil vs sildenafil
[2] = oral administration; cited from earlier work

SMILES	duration of effect (erectile dysfunction; depending on the patient) [h]	time until effect after application (erectile dysfunction) [min]	half-life relative to half-life of sildenafil [1] [times]	loss of drug ingested (first-pass metabolism plus absorptive process) [2] [%]
CCCCC[C@H](O)/C=C/[C@H]1[C@H](O)CC(=O)[C@@H]1CCCCCCC(=O)O [alprostadil]	≤ 2	20	–	–
CN1CC(=O)N2[C@H](c3ccc4c(c3)OCO4)c3[nH]c4ccccc4c3C[C@@H]2C1=O [tadalafil]	–	–	4.38	≤ 50
